Results as given in EP2832348B1, “METHOD FOR DISSOLVING FLAVONOID COMPOUND, CARBON GLYCOSIDE COMPOUND, OR STILBENE COMPOUND AND METHOD FOR PREPARING AN INJECTION OR A POWDER FOR INJECTION” (Kunming Pharmaceutical Corp., priority 2012, dated 2013).

Test: Dissolving the compound with solubilizer in heated, vacuum-stirred water for injection under nitrogen or argon gas (preparation tank)
Type: physicochemical
Details: kept at 80 °C
Experimental: In view of this, the present invention provides a method for dissolving a carbon glycoside compound or a stilbene compound, characterized in that the method comprises the following steps: • heating water for injection to 80-98 °C, followed by stirring under vacuum condition at 30-80 °C, and then adding the carbon glycoside compound or the stilbene compound along with a solubilizer under the protection of nitrogen gas or argon gas to obtain a solution of said compounds; • wherein the solubilizer is one or a mixture of two or more of gastrodin, water-soluble cyclodextrin and ethanol, and wherein the water-soluble cyclodextrin is one or a mixture of two or more of methyl-β-cyclodextrin, thioether-β-cyclodextrin and sulfobutyl ether-β-cyclodextrin; and • wherein the mass ratio of the carbon glycoside compound or the stilbene compound to the solubilizer is 1:1-20.
Disclosed is a method for dissolving a flavonoid compound, a carbon glycoside compound or a stilbene compound, including: • mixing the flavonoid compound, the carbon glycoside compound or the stilbene compound with a solubilizer to obtain a reactant; and • heating water for injection to 80-98 °C, followed by stirring under vacuum conditions at 30-80 °C, and then adding the reactant under the protection of nitrogen gas or argon gas to obtain a solution of the reactant.
Considering the sensitivity to heat or light of the flavonoid compound, the carbon glycoside compound or the stilbene compound, a method is provided by heating water for injection to 80-98 °C to remove dissolved oxygen and other gases in water, which reduces the surface tension of water, increases the contact area of water with the flavonoid compound, the carbon glycoside compound or the stilbene compound, thus increasing the dissolution speed. Meanwhile, pre-heating the water for injection can effectively avoid degradation of the flavonoid compound, the carbon glycoside compound or the stilbene compound due to exposure to the dissolved oxygen, to eliminate unstable factors of the flavonoid compound, the carbon glycoside compound or the stilbene compound. The vacuum conditions can achieve further deoxygenation, facilitating the dissolution of the flavonoid compound, the carbon glycoside compound or the stilbene compound in water. Nitrogen gas or argon gas provides an inert atmosphere, which further reduces the surface tension of the materials, increases the contact area of the flavonoid compound, the carbon glycoside compound or the stilbene compound with water, and increases the dissolution speed.

Compound: CC(=O)Cc1cc(=O)c2c(C)cc(O)c([C@@H]3O[C@H](CO)[C@@H](O)[C@H](O)[C@H]3O)c2o1 [Aloesin]
- dissolved in (time) (Example 22: 10 g with Hydroxypropyl-β-cyclodextrin 50 g, Sodium bicarbonate 1 g in 1000 ml, water heated to 88 °C, vacuum stirring 35 minutes, argon gas): about 5 minutes
- dissolved in (time) (Example 26: 5 g with Gastrodin 100 g, Disodium edetate 0.1 g in 1000 ml, water heated to 95 °C, vacuum stirring 10 minutes, nitrogen gas): about 10 minutes

Compound: O=c1cc(-c2ccccc2)oc2cc(O)c(O)c(O)c12 [Baicalein]
- dissolved in (time) (Example 9: 10 g with Sulfobutyl ether-β-cyclodextrin 50 g, Sodium bicarbonate 1 g in 1000 ml, water heated to 90 °C, vacuum stirring 20 minutes, argon gas): about 5 minutes

Compound: O=C(O)[C@H]1O[C@@H](Oc2cc3oc(-c4ccccc4)cc(=O)c3c(O)c2O)[C@H](O)[C@@H](O)[C@@H]1O [Baicalin]
- dissolved in (time) (Example 10: 5 g with Gastrodin 100 g, Disodium edetate 0.1 g, Sodium carbonate 5 g in 1000 ml, water heated to 95 °C, vacuum stirring 10 minutes, nitrogen gas): about 5 minutes

Compound: O=C1c2c(O)cccc2C([C@@H]2O[C@H](CO)[C@@H](O)[C@H](O)[C@H]2O)c2cc(CO)cc(O)c21 (stereo partly shown) [Barbaloin]
- dissolved in (time) (Example 19: 25 g with Gastrodin 100 g, Methyl-β-cyclodextrin 50 g, Sodium bicarbonate 1 g in 1000 ml, water heated to 95 °C, vacuum stirring 10 minutes, argon gas): about 10 minutes
- dissolved in (time) (Example 23: 10 g with Methyl-β-cyclodextrin 50 g, Sodium bicarbonate 1 g in 1000 ml, water heated to 98 °C, vacuum stirring 10 minutes, argon gas): about 5 minutes
- dissolved in (time) (Example 30: 5 g with Gastrodin 100 g, Disodium edetate 0.1 g in 1000 ml, water heated to 95 °C, vacuum stirring 10 minutes, nitrogen gas): about 10 minutes

Compound: COc1c(O)cc2c(c1O)[C@@H]1O[C@H](CO)[C@@H](O)[C@H](O)[C@H]1OC2=O [Bergenin]
- dissolved in (time) (Example 21: 25 g with Gastrodin 100 g, Sulfobutyl ether-β-cyclodextrin 50 g, Sodium bicarbonate 1 g in 1000 ml, water heated to 85 °C, vacuum stirring 50 minutes, argon gas): about 10 minutes
- dissolved in (time) (Example 25: 10 g with Sulfobutyl ether-β-cyclodextrin 50 g, Sodium bicarbonate 1 g in 1000 ml, water heated to 95 °C, vacuum stirring 10 minutes, argon gas): about 5 minutes
- dissolved in (time) (Example 28: 5 g with Gastrodin 100 g, Disodium edetate 0.1 g in 1000 ml, water heated to 95 °C, vacuum stirring 10 minutes, nitrogen gas): about 10 minutes

Compound: O=c1c(-c2ccc(O)cc2)coc2cc(O)ccc12 [Daidzein]
- dissolved in (time) (Example 7: 10 g with Methyl-β-cyclodextrin 50 g, Sodium bicarbonate 1 g in 1000 ml, water heated to 80 °C, vacuum stirring 60 minutes, argon gas): about 5 minutes

Compound: COc1ccc(/C=C/c2cc(O)cc(O[C@@H]3O[C@H](CO)[C@@H](O)[C@H](O)[C@H]3O)c2)cc1 [Deoxyrhapontin (methyl polydatin), Deoxyrhapontin]
- dissolved in (time) (Example 43: 50 g with Gastrodin 100 g, Methyl-β-cyclodextrin 30 g in 1000 ml, water heated to 98 °C, vacuum stirring 15 minutes, nitrogen gas): about 5 minutes
- dissolved in (time) (Example 49: 5 g with Sulfobutyl ether-β-cyclodextrin 30 g in 1000 ml, water heated to 95 °C, vacuum stirring 10 minutes, nitrogen gas): about 5 minutes
- dissolved in (time) (Example 57: 10 g with Hydroxypropyl-β-cyclodextrin 50 g (formula; text: sulfobutyl ether-β-cyclodextrin) in 1000 ml, water heated to 95 °C, vacuum stirring 10 minutes, nitrogen gas): about 5 minutes
- dissolved in (time) (Example 67: 5 g with Gastrodin 100 g in 1000 ml, water heated to 95 °C, vacuum stirring 10 minutes, nitrogen gas): about 5 minutes

Compound: O=C1CC(c2ccccc2)Oc2cc(O)c(O)c(O)c21 (stereo not shown) [Dihydrobaicalein]
- dissolved in (time) (Example 13: 5 g with Gastrodin 100 g, Disodium edetate 0.1 g, Sodium carbonate 3 g in 1000 ml, water heated to 90 °C, vacuum stirring 25 minutes, nitrogen gas): about 5 minutes

Compound: COc1ccc([C@@H]2CC(=O)c3c(O)cc(O)cc3O2)cc1O [Hesperetin]
- dissolved in (time) (Example 15: 5 g with Gastrodin 100 g, Disodium edetate 0.1 g, Sodium carbonate 2 g in 1000 ml, water heated to 95 °C, vacuum stirring 10 minutes, nitrogen gas): about 5 minutes

Compound: O=c1cc(-c2ccc(O)c(O)c2)oc2cc(O)c([C@@H]3O[C@H](CO)[C@@H](O)[C@H](O)[C@H]3O)c(O)c12 [Homoorientin]
- dissolved in (time) (Example 20: 25 g with Gastrodin 100 g, Thioether-β-cyclodextrin 50 g, Sodium bicarbonate 1 g in 1000 ml, water heated to 80 °C, vacuum stirring 60 minutes, argon gas): about 10 minutes
- dissolved in (time) (Example 24: 10 g with Thioether-β-cyclodextrin 50 g, Sodium bicarbonate 1 g in 1000 ml, water heated to 95 °C, vacuum stirring 10 minutes, argon gas): about 5 minutes

Compound: COc1ccc(-c2oc3cc(O)cc(O)c3c(=O)c2O)cc1 [Kaempferide]
- dissolved in (time) (Example 4: 25 g with Gastrodin 100 g, Thioether-β-cyclodextrin 50 g, Sodium carbonate 1 g in 1000 ml, water heated to 98 °C, vacuum stirring 5 minutes, argon gas): about 5 minutes

Compound: Oc1ccc2c(c1)OC[C@H]1c3cc4c(cc3O[C@@H]21)OCO4 [Maackiain]
- dissolved in (time) (Example 12: 5 g with Gastrodin 100 g, Disodium edetate 0.1 g, Sodium carbonate 3 g in 1000 ml, water heated to 95 °C, vacuum stirring 10 minutes, nitrogen gas): about 5 minutes

Compound: O=C1C[C@@H](c2ccc(O)cc2)Oc2cc(O)cc(O)c21 [Naringenin]
- dissolved in (time) (Example 14: 5 g with Gastrodin 100 g, Disodium edetate 0.1 g, Sodium carbonate 2 g in 1000 ml, water heated to 98 °C, vacuum stirring 10 minutes, nitrogen gas): about 5 minutes

Compound: OC[C@H]1O[C@@H](Oc2cc(O)cc(/C=C/c3ccc(O)cc3)c2)[C@H](O)[C@@H](O)[C@@H]1O [Polydatin]
- dissolved in (time) (Example 41: 25 g with Gastrodin 80 g, Sulfobutyl ether-β-cyclodextrin 30 g in 1000 ml, water heated to 85 °C, vacuum stirring 45 minutes, nitrogen gas): about 5 minutes
- dissolved in (time) (Example 46: 5 g with Hydroxypropyl-β-cyclodextrin 30 g in 1000 ml, water heated to 83 °C, vacuum stirring 25 minutes, nitrogen gas): about 5 minutes
- dissolved in (time) (Example 54: 10 g with Hydroxypropyl-β-cyclodextrin 50 g in 1000 ml, water heated to 95 °C, vacuum stirring 10 minutes, nitrogen gas): about 5 minutes
- dissolved in (time) (Example 64: 5 g with Gastrodin 100 g in 1000 ml, water heated to 95 °C, vacuum stirring 10 minutes, nitrogen gas): about 5 minutes

Compound: O=c1c(-c2ccc(O)cc2)coc2c([C@@H]3O[C@H](CO)[C@@H](O)[C@H](O)[C@H]3O)c(O)ccc12 [Puerarin]
- dissolved in (time) (Example 5: 25 g with Gastrodin 100 g, Sulfobutyl ether-β-cyclodextrin 50 g, Sodium carbonate 1 g in 1000 ml, water heated to 95 °C, vacuum stirring 3 minutes, argon gas): about 5 minutes
- dissolved in (time) (Example 6 (formula: Daidzin 10 g) with Hydroxypropyl-β-cyclodextrin 50 g, Sodium bicarbonate 1 g in 1000 ml, water heated to 95 °C, vacuum stirring 8 minutes, argon gas): about 5 minutes

Compound: O=c1c(O)c(-c2ccc(O)c(O)c2)oc2cc(O)cc(O)c12 [Quercetin]
- dissolved in (time) (Example 3: 25 g with Gastrodin 100 g, Methyl-β-cyclodextrin 50 g, Sodium carbonate 1 g in 1000 ml, water heated to 95 °C, vacuum stirring 1 minute, argon gas): about 5 minutes

Compound: Oc1ccc(C=Cc2cc(O)cc(O)c2)cc1 [Resveratrol]
- dissolved in (time) (Example 39: 25 g with Gastrodin 80 g, Methyl-β-cyclodextrin 30 g in 1000 ml, water heated to 80 °C, vacuum stirring 60 minutes, nitrogen gas): about 5 minutes
- dissolved in (time) (Example 44: 50 g with Gastrodin 100 g, Thioether-β-cyclodextrin 30 g in 1000 ml, water heated to 95 °C, vacuum stirring 10 minutes, nitrogen gas): about 5 minutes
- dissolved in (time) (Example 50: 10 g with Hydroxypropyl-β-cyclodextrin 30 g in 1000 ml, water heated to 95 °C, vacuum stirring 10 minutes, nitrogen gas): about 5 minutes
- dissolved in (time) (Example 60: 20 g with Thioether-β-cyclodextrin 50 g in 1000 ml, water heated to 95 °C, vacuum stirring 10 minutes, nitrogen gas): about 5 minutes

Compound: COc1ccc(/C=C/c2cc(O)cc(O[C@@H]3O[C@H](CO)[C@@H](O)[C@H](O)[C@H]3O)c2)cc1O [Rhapontin]
- dissolved in (time) (Example 42: 50 g with Gastrodin 100 g, Hydroxypropyl-β-cyclodextrin 30 g in 1000 ml, water heated to 95 °C, vacuum stirring 10 minutes, nitrogen gas): about 5 minutes
- dissolved in (time) (Example 48: 5 g with Thioether-β-cyclodextrin 30 g in 1000 ml, water heated to 92 °C, vacuum stirring 40 minutes, nitrogen gas): about 5 minutes
- dissolved in (time) (Example 56: 10 g with Thioether-β-cyclodextrin 50 g in 1000 ml, water heated to 95 °C, vacuum stirring 10 minutes, nitrogen gas): about 5 minutes
- dissolved in (time) (Example 66: 5 g with Gastrodin 100 g in 1000 ml, water heated to 95 °C, vacuum stirring 10 minutes, nitrogen gas): about 5 minutes
